IC50 data for one compound are collected here from PMC2865140 (Microbiology (Reading, England), 2009).

In experiment [1] the target is AccD5 (carboxyltransferase beta subunit of ACCase 5) (Mycobacterium tuberculosis, UniProt P9WQH7). Type of experiment: biochemical.
For experiment [2], the target named is T1, AccD6 (carboxyltransferase beta subunit of ACCase 6) (Mycobacterium tuberculosis, UniProt P9WQH5).
T1 sequence (P9WQH5 1-473): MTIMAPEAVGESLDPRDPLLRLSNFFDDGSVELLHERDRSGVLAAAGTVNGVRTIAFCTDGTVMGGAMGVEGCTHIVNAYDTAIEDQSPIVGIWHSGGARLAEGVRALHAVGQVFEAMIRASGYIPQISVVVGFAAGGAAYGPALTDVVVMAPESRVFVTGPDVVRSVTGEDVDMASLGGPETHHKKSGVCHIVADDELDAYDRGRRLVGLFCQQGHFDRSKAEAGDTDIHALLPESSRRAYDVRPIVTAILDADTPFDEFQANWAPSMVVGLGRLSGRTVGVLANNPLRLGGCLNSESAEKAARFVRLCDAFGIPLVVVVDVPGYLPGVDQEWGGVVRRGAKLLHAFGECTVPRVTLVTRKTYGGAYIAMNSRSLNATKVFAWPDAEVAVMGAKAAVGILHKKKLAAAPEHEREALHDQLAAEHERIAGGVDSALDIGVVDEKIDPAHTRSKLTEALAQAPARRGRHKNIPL
T1 sequence (P9WPQ3 1-654 partner): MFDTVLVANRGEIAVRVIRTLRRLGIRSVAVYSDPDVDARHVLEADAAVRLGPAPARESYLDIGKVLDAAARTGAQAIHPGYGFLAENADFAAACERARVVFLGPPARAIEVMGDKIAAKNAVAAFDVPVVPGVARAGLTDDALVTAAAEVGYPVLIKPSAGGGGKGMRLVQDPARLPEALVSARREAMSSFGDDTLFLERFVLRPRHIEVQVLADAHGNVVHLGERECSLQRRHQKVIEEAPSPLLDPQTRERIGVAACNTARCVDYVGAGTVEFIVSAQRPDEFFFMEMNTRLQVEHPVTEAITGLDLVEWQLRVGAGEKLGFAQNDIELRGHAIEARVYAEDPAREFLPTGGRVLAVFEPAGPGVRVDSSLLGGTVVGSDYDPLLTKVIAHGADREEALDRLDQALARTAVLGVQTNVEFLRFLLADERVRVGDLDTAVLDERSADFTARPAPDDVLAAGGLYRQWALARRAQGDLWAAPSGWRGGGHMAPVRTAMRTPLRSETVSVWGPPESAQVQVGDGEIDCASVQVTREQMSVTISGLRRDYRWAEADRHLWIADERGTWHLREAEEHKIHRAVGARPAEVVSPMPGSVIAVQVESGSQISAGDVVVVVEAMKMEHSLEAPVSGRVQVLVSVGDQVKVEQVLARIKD
Type of experiment: biochemical.

Chain of AccD5 (carboxyltransferase beta subunit of ACCase 5) (P96890 2-600): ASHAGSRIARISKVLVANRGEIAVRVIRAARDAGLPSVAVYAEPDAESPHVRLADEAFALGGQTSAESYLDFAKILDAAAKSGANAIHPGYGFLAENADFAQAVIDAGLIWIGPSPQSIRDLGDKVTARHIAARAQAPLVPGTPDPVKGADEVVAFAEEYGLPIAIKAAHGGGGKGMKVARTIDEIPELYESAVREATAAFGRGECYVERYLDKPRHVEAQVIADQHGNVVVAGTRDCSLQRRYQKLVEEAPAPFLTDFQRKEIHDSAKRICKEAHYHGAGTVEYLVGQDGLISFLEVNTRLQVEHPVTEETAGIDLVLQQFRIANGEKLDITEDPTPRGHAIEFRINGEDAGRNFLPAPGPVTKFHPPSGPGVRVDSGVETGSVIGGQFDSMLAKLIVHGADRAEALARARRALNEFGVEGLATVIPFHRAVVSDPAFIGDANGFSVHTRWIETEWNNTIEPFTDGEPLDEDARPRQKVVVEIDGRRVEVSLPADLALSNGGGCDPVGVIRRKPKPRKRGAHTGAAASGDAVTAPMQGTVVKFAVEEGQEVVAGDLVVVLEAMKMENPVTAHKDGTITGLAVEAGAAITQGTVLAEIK
Chain of AccD5 (carboxyltransferase beta subunit of ACCase 5) (P96886 whole entry, further chain): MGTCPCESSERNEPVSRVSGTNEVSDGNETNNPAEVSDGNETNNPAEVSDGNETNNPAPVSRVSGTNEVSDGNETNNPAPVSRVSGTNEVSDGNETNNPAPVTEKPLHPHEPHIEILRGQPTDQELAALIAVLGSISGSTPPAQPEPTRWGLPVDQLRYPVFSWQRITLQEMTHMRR
Chain of AccD5 (carboxyltransferase beta subunit of ACCase 5) (P9WQH7 whole entry): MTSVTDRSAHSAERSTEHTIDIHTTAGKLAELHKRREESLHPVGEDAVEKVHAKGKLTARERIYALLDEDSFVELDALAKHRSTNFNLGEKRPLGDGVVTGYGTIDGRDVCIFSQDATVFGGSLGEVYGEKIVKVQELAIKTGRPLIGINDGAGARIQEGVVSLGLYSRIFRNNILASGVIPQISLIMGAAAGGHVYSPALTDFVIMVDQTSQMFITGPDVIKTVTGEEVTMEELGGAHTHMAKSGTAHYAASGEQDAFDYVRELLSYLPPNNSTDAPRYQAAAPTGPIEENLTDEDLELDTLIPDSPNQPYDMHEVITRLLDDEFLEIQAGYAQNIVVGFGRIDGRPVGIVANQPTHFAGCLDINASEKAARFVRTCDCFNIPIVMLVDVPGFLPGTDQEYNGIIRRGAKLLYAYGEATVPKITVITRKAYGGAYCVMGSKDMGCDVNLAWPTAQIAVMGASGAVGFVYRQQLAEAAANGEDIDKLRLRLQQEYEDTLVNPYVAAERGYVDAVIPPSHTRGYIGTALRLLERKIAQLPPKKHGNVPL

For `Oc1c(Cl)cc(C(c2cc(Cl)c(O)c(Cl)c2)C(c2cc(Cl)c(O)c(Cl)c2)c2cc(Cl)c(O)c(Cl)c2)cc1Cl` [NCI-172033], the IC50 in experiment [1] was 78 µM; in experiment [2], around 8 µM.
